Measurements: the supplement of paper PMC10307832

Legend:
Assay in all cases: relative viability (nuclei count vs DMSO), 5 days (fraction); higher = more cells survive
ABC-1 = test system: ABC-1
How it was run: (§1)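 Medians of duplicate plates are given as relative viability. That measure is the nuclei count in treated wells divided by the count in vehicle wells. Counts were taken on 4× images of lung cancer cell lines in 1536-well plates, 5 days after pin-tool dosing the day after seeding with one drug alone or a fixed anchor-drug dose plus five library-drug doses (not always all listed) in √10 steps.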

HOP-62 = test system: HOP-62
How it was run: as §1

NCI-H1355 = test system: NCI-H1355
How it was run: as §1

NCI-H1648 = test system: NCI-H1648
How it was run: as §1

NCI-H2009 = test system: NCI-H2009
How it was run: as §1

NCI-H23 = test system: NCI-H23
How it was run: as §1

NCI-H322M = test system: NCI-H322M
How it was run: as §1

UMC-11 = test system: UMC-11
How it was run: as §1

NCI-H1623 = test system: NCI-H1623
How it was run: as §1

A549 = test system: A549
How it was run: as §1

COCC1(CO)C(=O)C2CCN1CC2 (centres undefined) [PRIMA-1MET] + CC(=O)c1c(C)c2cnc(Nc3ccc(N4CCNCC4)cn3)nc2n(C2CCCC2)c1=O [Palbociclib] (partner 0.5 µM)
relative viability (ABC-1; first compound 0.2 µM): 0.984 | relative viability (ABC-1; first compound 2 µM): 0.482 | relative viability (ABC-1; first compound 6.325 µM): 0.552 | relative viability (ABC-1; first compound 20 µM): 0.181 | relative viability (HOP-62; first compound 0.2 µM): 0.549 | relative viability (HOP-62; first compound 0.6325 µM): 0.385 | relative viability (HOP-62; first compound 2 µM): 0.469 | relative viability (HOP-62; first compound 6.325 µM): 0.475 | relative viability (HOP-62; first compound 20 µM): 0.317 | relative viability (NCI-H1355; first compound 0.2 µM): 0.465 | relative viability (NCI-H1355; first compound 0.6325 µM): 0.393 | relative viability (NCI-H1355; first compound 2 µM): 0.328 | relative viability (NCI-H1355; first compound 6.325 µM): 0.436 | relative viability (NCI-H1355; first compound 20 µM): 0.414 | relative viability (NCI-H1648; first compound 0.2 µM): 0.251 | relative viability (NCI-H1648; first compound 2 µM): 0.283 | relative viability (NCI-H1648; first compound 20 µM): 0.283 | relative viability (NCI-H2009; first compound 0.2 µM): 0.185 | relative viability (NCI-H2009; first compound 0.6325 µM): 0.251 | relative viability (NCI-H2009; first compound 2 µM): 0.112 | relative viability (NCI-H2009; first compound 6.325 µM): 0.215 | relative viability (NCI-H2009; first compound 20 µM): 0.0008 | relative viability (NCI-H23; first compound 0.2 µM): 0.469 | relative viability (NCI-H23; first compound 0.6325 µM): 0.351 | relative viability (NCI-H23; first compound 2 µM): 0.416 | relative viability (NCI-H23; first compound 6.325 µM): 0.538 | relative viability (NCI-H23; first compound 20 µM): 0.121 | relative viability (NCI-H322M; first compound 0.2 µM): 0.535 | relative viability (NCI-H322M; first compound 0.6325 µM): 0.515 | relative viability (NCI-H322M; first compound 6.325 µM): 0.525 | relative viability (NCI-H322M; first compound 20 µM): 0.34 | relative viability (UMC-11; first compound 0.2 µM): 0.31 | relative viability (UMC-11; first compound 0.6325 µM): 0.362 | relative viability (UMC-11; first compound 2 µM): 0.268 | relative viability (UMC-11; first compound 6.325 µM): 0.356 | relative viability (UMC-11; first compound 20 µM): 0.278

COCC1(CO)C(=O)C2CCN1CC2 (centres undefined) [PRIMA-1MET] + Cc1cc(Nc2cc(N3CCN(C)CC3)nc(Sc3ccc(NC(=O)C4CC4)cc3)n2)n[nH]1 [Tozasertib] (partner 0.1 µM)
relative viability (ABC-1; first compound 0.2 µM): 0.243 | relative viability (ABC-1; first compound 0.6325 µM): 0.188 | relative viability (ABC-1; first compound 2 µM): 0.17 | relative viability (ABC-1; first compound 6.325 µM): 0.145 | relative viability (ABC-1; first compound 20 µM): 0.259 | relative viability (HOP-62; first compound 0.2 µM): 0.426 | relative viability (HOP-62; first compound 0.6325 µM): 0.341 | relative viability (HOP-62; first compound 2 µM): 0.38 | relative viability (HOP-62; first compound 6.325 µM): 0.383 | relative viability (HOP-62; first compound 20 µM): 0.305 | relative viability (NCI-H1355; first compound 0.2 µM): 0.581 | relative viability (NCI-H1355; first compound 0.6325 µM): 0.568 | relative viability (NCI-H1355; first compound 2 µM): 0.564 | relative viability (NCI-H1355; first compound 6.325 µM): 0.629 | relative viability (NCI-H1355; first compound 20 µM): 0.517 | relative viability (NCI-H1623; first compound 0.2 µM): 0.474 | relative viability (NCI-H1623; first compound 0.6325 µM): 0.449 | relative viability (NCI-H1623; first compound 2 µM): 0.445 | relative viability (NCI-H1623; first compound 6.325 µM): 0.452 | relative viability (NCI-H1623; first compound 20 µM): 0.367 | relative viability (NCI-H1648; first compound 0.2 µM): 0.415 | relative viability (NCI-H1648; first compound 0.6325 µM): 0.361 | relative viability (NCI-H1648; first compound 2 µM): 0.391 | relative viability (NCI-H1648; first compound 6.325 µM): 0.574 | relative viability (NCI-H1648; first compound 20 µM): 0.465 | relative viability (NCI-H2009; first compound 0.2 µM): 0.846 | relative viability (NCI-H2009; first compound 0.6325 µM): 0.742 | relative viability (NCI-H2009; first compound 2 µM): 0.948 | relative viability (NCI-H2009; first compound 6.325 µM): 0.726 | relative viability (NCI-H2009; first compound 20 µM): 0.0462 | relative viability (NCI-H23; first compound 0.2 µM): 0.507 | relative viability (NCI-H23; first compound 0.6325 µM): 0.312 | relative viability (NCI-H23; first compound 2 µM): 0.371 | relative viability (NCI-H23; first compound 6.325 µM): 0.292 | relative viability (NCI-H23; first compound 20 µM): 0.097 | relative viability (NCI-H322M; first compound 0.2 µM): 0.515 | relative viability (NCI-H322M; first compound 0.6325 µM): 0.523 | relative viability (NCI-H322M; first compound 6.325 µM): 0.504 | relative viability (NCI-H322M; first compound 20 µM): 0.286 | relative viability (UMC-11; first compound 0.2 µM): 0.215 | relative viability (UMC-11; first compound 0.6325 µM): 0.183 | relative viability (UMC-11; first compound 2 µM): 0.195 | relative viability (UMC-11; first compound 6.325 µM): 0.193 | relative viability (UMC-11; first compound 20 µM): 0.201

COCC1(CO)C(=O)C2CCN1CC2 (centres undefined) [PRIMA-1MET] + N=C(N)NC(=N)NCCc1ccccc1 [Phenformin] (partner 250 µM)
relative viability (A549; first compound 0.2 µM): 0.165 | relative viability (A549; first compound 0.6325 µM): 0.173 | relative viability (A549; first compound 2 µM): 0.204 | relative viability (A549; first compound 6.325 µM): 0.148 | relative viability (A549; first compound 20 µM): 0.0121 | relative viability (ABC-1; first compound 0.2 µM): 0.233 | relative viability (ABC-1; first compound 0.6325 µM): 0.2 | relative viability (ABC-1; first compound 2 µM): 0.23 | relative viability (ABC-1; first compound 6.325 µM): 0.231 | relative viability (ABC-1; first compound 20 µM): 0.199 | relative viability (HOP-62; first compound 0.2 µM): 0.668 | relative viability (HOP-62; first compound 0.6325 µM): 0.686 | relative viability (HOP-62; first compound 2 µM): 0.648 | relative viability (HOP-62; first compound 6.325 µM): 0.694 | relative viability (HOP-62; first compound 20 µM): 0.311 | relative viability (NCI-H1355; first compound 0.2 µM): 0.443 | relative viability (NCI-H1355; first compound 0.6325 µM): 0.409 | relative viability (NCI-H1355; first compound 2 µM): 0.384 | relative viability (NCI-H1355; first compound 6.325 µM): 0.46 | relative viability (NCI-H1355; first compound 20 µM): 0.421 | relative viability (NCI-H1623; first compound 0.2 µM): 0.522 | relative viability (NCI-H1623; first compound 0.6325 µM): 0.603 | relative viability (NCI-H1623; first compound 2 µM): 0.544 | relative viability (NCI-H1623; first compound 6.325 µM): 0.503 | relative viability (NCI-H1623; first compound 20 µM): 0.457 | relative viability (NCI-H2009; first compound 0.2 µM): 0.497 | relative viability (NCI-H2009; first compound 0.6325 µM): 0.456 | relative viability (NCI-H2009; first compound 2 µM): 0.519 | relative viability (NCI-H2009; first compound 6.325 µM): 0.53 | relative viability (NCI-H2009; first compound 20 µM): 0.217 | relative viability (NCI-H23; first compound 0.2 µM): 0.854 | relative viability (NCI-H23; first compound 0.6325 µM): 0.772 | relative viability (NCI-H23; first compound 2 µM): 0.822 | relative viability (NCI-H23; first compound 6.325 µM): 0.842 | relative viability (NCI-H23; first compound 20 µM): 0.561 | relative viability (NCI-H322M; first compound 0.2 µM): 0.869 | relative viability (NCI-H322M; first compound 0.6325 µM): 0.549 | relative viability (NCI-H322M; first compound 6.325 µM): 0.804 | relative viability (NCI-H322M; first compound 20 µM): 0.0578 | relative viability (UMC-11; first compound 0.2 µM): 0.348 | relative viability (UMC-11; first compound 0.6325 µM): 0.31 | relative viability (UMC-11; first compound 2 µM): 0.264 | relative viability (UMC-11; first compound 6.325 µM): 0.343 | relative viability (UMC-11; first compound 20 µM): 0.254
